In patent publication US20230364075A1, “[…] DOSAGE FORMS COMPRISING DEUTETRABENAZINE” (AUSPEX PHARMACEUTICALS, INC., priority 2020, published 2023):

Key:
[1] = design: species or system human; conditions: in vivo
[2] = in vivo; cited from earlier work
[3] = system: small intestinal (SI) segments; format: in vivo; conditions: rat
Description: (§1) Deutetrabenazine is permeable through the small intestinal (SI) segments in a rat perfusion model.

[4] = Solubility of deutetrabenazine versus pH; format: physicochemical
Method: as §1
The dosage forms disclosed herein were developed to achieve similar pharmacokinetics (PK) of 2 doses of AUSTEDO® 12 mg tablets with a single daily dose (QD).

[5] = Particle size distribution by laser diffractometry (Mastersizer 3000); format: physicochemical; conditions: drug substance, Table 1
Method: Particle size distribution is determined by means of laser diffractometry. More specifically, the particle size distribution was determined using a Mastersizer 3000 from Malvern Instruments. The particle size determination may be carried out as a wet or dry measurement depending on the sample.
The deutetrabenazine particle size distributions following manufacture (untreated), micronization (air jet mill) and nano-milling (Dyno bead mill) are shown in Table 1.
Using a Mastersizer 3000 (Malvern Instruments), the following settings were used for dry measurement of the micro-milled and unmilled deutetrabenazine:
Using a Mastersizer 3000 (Malvern Instruments), the following settings were used for wet measurement of the nano-milled deutetrabenazine:
Deutetrabenazine particle size was reduced to a nanometer size (<1.0 micron) using a wet Dyno milling process in several passes. The milled deutetrabenazine was dispersed in excipient as above. The dispersion was passed through a 0.3 liter agitator bead mill containing 950 g of very high density zirconium oxide beads. The dispersion was passed through the agitator mill for up to 2 hrs to obtain particle size below 1.0 micron.

radioactive dose recovered in urine [1] | permeability through small intestinal (SI) segments [3] | ileum absorption ([3]; in vivo) | levels of absorption in the lower GI, order of segments ([3]; in vivo) | solubility ([4]; acidic environment (pH<4)) | solubility ([4]; pH ≥4) | D10 [5] | D50 [5] | D90 [5] | SMILES | half-life of active metabolites relative to tetrabenazine [2]
approximately 80% | permeable | about 0.0006 cm/sec | Jejunum<Mid-small intestine<Colon<Ileum | relatively good solubility | < 2300 µg/mL | – | – | – | [2H]C([2H])([2H])Oc1cc2c(cc1OC([2H])([2H])[2H])[C@H]1CC(=O)[C@H](CC(C)C)CN1CC2 [Deutetrabenazine, (RR,SS)-1,3,4,6,7,11b-hexahydro-9,10-di(methoxy-D3)-3-(2-methylpropyl)-2H-benzo[a]quinolizin-2-one] | increased half-life
– | – | – | – | – | – | 1.08 μm | 3.31 μm | 7.05 μm | [2H]C([2H])([2H])Oc1cc2c(cc1OC([2H])([2H])[2H])C1CC(=O)C(CC(C)C)CN1CC2 (stereo not shown) [micro-milled] | –
– | – | – | – | – | – | 0.07 μm | 0.14 μm | 0.34 μm | [2H]C([2H])([2H])Oc1cc2c(cc1OC([2H])([2H])[2H])C1CC(=O)C(CC(C)C)CN1CC2 (stereo not shown) [nano-milled] | –
